Measured values from patent US8178501B2, “Antibiotic combinations for providing total solution to the treatment of infections” (priority 2004, dated 2012).
Counter-ions that a name gives are not always drawn.

What was measured:
Assay in all cases: Bacterial Susceptibility Test, zone size
Type in all cases: cell-based
E. coli = test system: E. coli
Method: (§1) The combination of amikacin and cefepime on different microorganisms was taken to analyze the efficiency of combination in comparison with the individual components of the drug. Different concentrations were selected mentioned to as highest, high, low and lowest in the data. Zone size was determined in mm.

Enterococcus faecalis = test system: Enterococcus faecalis
Method: as §1

Klebsiella pneumoniae = test system: Klebsiella pneumoniae
Method: as §1

Pseudomonas auriginosa = test system: Pseudomonas auriginosa
Method: as §1

Staphylococcus aureus = test system: Staphylococcus aureus
Method: as §1

Streptococcus pneumoniae = test system: Streptococcus pneumoniae
Method: as §1

| SMILES | Zone (E. coli; concentration High) [mm] | Zone (E. coli; concentration Highest) [mm] | Zone (E. coli; concentration Low) [mm] | Zone (E. coli; concentration Lowest) [mm] | Zone (Enterococcus faecalis; concentration High) [mm] | Zone (Enterococcus faecalis; concentration Highest) [mm] | Zone (Enterococcus faecalis; concentration Low) [mm] | Zone (Enterococcus faecalis; concentration Lowest) [mm] | Zone (Klebsiella pneumoniae; concentration High) [mm] | Zone (Klebsiella pneumoniae; concentration Highest) [mm] | Zone (Klebsiella pneumoniae; concentration Low) [mm] | Zone (Klebsiella pneumoniae; concentration Lowest) [mm] | Zone (Pseudomonas auriginosa; concentration High) [mm] | Zone (Pseudomonas auriginosa; concentration Highest) [mm] | Zone (Pseudomonas auriginosa; concentration Low) [mm] | Zone (Pseudomonas auriginosa; concentration Lowest) [mm] | Zone (Staphylococcus aureus; concentration High) [mm] | Zone (Staphylococcus aureus; concentration Highest) [mm] | Zone (Staphylococcus aureus; concentration Low) [mm] | Zone (Staphylococcus aureus; concentration Lowest) [mm] | other results |
| --- | --- | --- | --- | --- | --- | --- | --- | --- | --- | --- | --- | --- | --- | --- | --- | --- | --- | --- | --- | --- | --- |
| NCC[C@H](O)C(=O)N[C@@H]1C[C@H](N)[C@@H](O[C@H]2O[C@H](CN)[C@@H](O)[C@H](O)[C@H]2O)[C@H](O)[C@H]1O[C@H]1O[C@H](CO)[C@@H](O)[C@H](N)[C@H]1O [Amikacin, D-Streptamine, O-3-amino-3-deoxy-α-d-glucopyranosyl)1→6)-O-[6-amino-6-deoxy-α-D-glucopyranosyl(1→4)]-N^1-(4-amino-2-hydroxy-1-oxobutyl)-2-deoxy-,(S)-,sulfate (1:2)(salt)] | 29.02 | 30.90 | 22.06 | 15.02 | 23.24 | 27.29 | 17.97 | 08.05 | 31.25 | 34.98 | 31.02 | 29.98 | 21.81 | 26.93 | 16.05 | 09.81 | 24.42 | 28.92 | 18.79 | 10.09 | Zone (Streptococcus pneumoniae; concentration High): 24.28 mm; Zone (Streptococcus pneumoniae; concentration Highest): 26.58 mm; Zone (Streptococcus pneumoniae; concentration Low): 18.34 mm; Zone (Streptococcus pneumoniae; concentration Lowest): 12.32 mm |
| CO/N=C(\C(=O)N[C@@H]1C(=O)N2C(C(=O)O)=C(C[N+]3(C)CCCC3)CS[C@H]12)c1csc(N)n1.Cl.O.[Cl-] [Cefepime, 1-[[(6R,7R)-7-[2-(2-amino-4-thiazolyl)-glyoxylamido]-2-carboxy-8-oxo-5-thia-1-azabicyclo[4.2.0]oct-2-en-3-yl]methyl]-1-methyl-pyrrolidinium chloride, 7^2-(Z)-(O-methyloxime), monohydrochloride, monohydrate] | 30.16 | 32.24 | 24.20 | 16.42 | 25.52 | 28.98 | 19.92 | 12.65 | 32.35 | 36.02 | 31.96 | 30.83 | 27.56 | 30.94 | 18.81 | 12.08 | 28.44 | 31.06 | 21.18 | 16.24 | Zone (Streptococcus pneumoniae; concentration High): 28.10 mm; Zone (Streptococcus pneumoniae; concentration Highest): 30.32 mm; Zone (Streptococcus pneumoniae; concentration Low): 23.02 mm; Zone (Streptococcus pneumoniae; concentration Lowest): 19.54 mm |
